This is an account of results in US20090239836A1, “Multifunctional Ophthalmic Compositions” (priority 2008, published 2009).

By solubility is commonly meant the dissolved amount per volume that the medium holds.

This data set is described as follows: Solubility of compound having Formula V in various media. The format is physicochemical. The text has this:
For example, the solubility of the compound having Formula V in some embodiments of the present composition is compared to that in water in Table 1.

With `Cc1ccc2c(NCC(O)(CC(C)(C)c3cc(F)cc4c3OCC4)C(F)(F)F)cccc2n1` (centres unmarked) [Compound Having Formula V], the solubility runs as follows: (Medium: Water, pH 7) 0.2 µg/mL; (aqueous with cosolvent or surfactant or cyclodextrin, Medium: 1% Polysorbate 80) 12 µg/mL; (aqueous with cosolvent or surfactant or cyclodextrin, Medium: 10% PEG-400/1% polysorbate 80 (a composition of the present invention)) 12 µg/mL; (aqueous with cosolvent or surfactant or cyclodextrin, Medium: 25% PEG-40/1% polysorbate 80 (a composition of the present invention)) 18 µg/mL; (organic solvent or mixture, Medium: PEG-400) 5.6 µg/mL.
